Laboratory results as given in patent US9090576B2, “2-substituted-p-quinone derivatives for treatment of oxidative stress diseases” (Edison Pharmaceuticals, Inc., priority 2008, dated 2015).

Key:
Format in all cases: cell-based
[1] = system: human dermal fibroblasts from LHON patients; assay: Rescue of BSO-stressed fibroblasts from LHON patients (screen as Example A); conditions: Fibroblast, BSO-stressed LHON fibroblasts (GM03858), less than about 150 nM, read-out: EC50, protection against LHON
Procedure: (§1) A culture with FRDA fibroblasts was started from a 1 ml vial with approximately 500,000 cells stored in liquid nitrogen. Cells were propagated in 10 cm cell culture dishes by splitting every third day in a ratio of 1:3 until nine plates were available. Once confluent, fibroblasts were harvested. For 54 micro titer plates (96 well-MTP) a total of 14.3 million cells (passage eight) were re-suspended in 480 ml medium, corresponding to 100 μl medium with 3,000 cells/well. The remaining cells were distributed in 10 cm cell culture plates (500,000 cells/plate) for propagation. The plates were incubated overnight at 37° C. in an atmosphere with 95% humidity and 5% CO2 to allow attachment of the cells to the culture plate.
(§2) MTP medium (243 μl) was added to a well of the microtiter plate. The test compounds were unfrozen, and 7.5 μl of a 5 mM stock solution was dissolved in the well containing 243 μl medium, resulting in a 150 μM master solution. Serial dilutions from the master solution were made. The period between the single dilution steps was kept as short as possible (generally less than 1 second).
(§3) Plates were kept overnight in the cell culture incubator. The next day, 10 μl of a 10 mM BSO solution were added to the wells, resulting in a 1 mM final BSO concentration. Forty-eight hours later, three plates were examined under a phase-contrast microscope to verify that the cells in the 0% control (wells E1-H1) were clearly dead. The medium from all plates was discarded, and the remaining liquid was removed by gently tapping the plate inversed onto a paper towel.
(§4) 100 μl of PBS containing 1.2 μM Calcein AM were then added to each well. The plates were incubated for 50-70 minutes at room temperature. After that time the PBS was discarded, the plate gently tapped on a paper towel and fluorescence (excitation/emission wavelengths of 485 nm and 525 nm, respectively) was read on a Gemini fluorescence reader. Data was imported into Microsoft Excel (EXCEL is a registered trademark of Microsoft Corporation for a spreadsheet program) and used to calculate the EC50 concentration for each compound.
(§5) Compounds of the invention were screened as described in Example A, but substituting FRDA cells with Leber's Hereditary Optic Neuropathy (LHON) cells obtained from the Coriell Cell Repositories (Camden, N.J.; repository number GM03858). The compounds were tested for their ability to rescue human dermal fibroblasts from LHON patients from oxidative stress.

[2] = system: human dermal fibroblasts from Parkinson's Disease patients; assay: Rescue of BSO-stressed fibroblasts from Parkinson's Disease patients (screen as Example A); conditions: Fibroblast, BSO-stressed Parkinson's Disease fibroblasts (AG20439), less than about 150 nM, read-out: EC50, protection against PD
Procedure: as §1, §2, §3, §4
as §5, with “Parkinson's Disease (PD)” for “Leber's Hereditary Optic Neuropathy (LHON)”, “AG20439).” for “GM03858).”, “Parkinson's Disease” for “LHON”

[3] = system: Human dermal fibroblasts from Friedreich's Ataxia patients; assay: Rescue of BSO-stressed FRDA fibroblasts (Calcein AM viability); conditions: BSO-stressed FRDA fibroblasts (GM04078), less than about 150 nM, read-out: EC50, protection against FRDA
Procedure: An initial screen was performed to identify compounds effective for the amelioration of redox disorders. Test samples, 4 reference compounds (Idebenone, decylubiquinone, Trolox and α-tocopherol acetate), and solvent controls were tested for their ability to rescue FRDA fibroblasts stressed by addition of L-buthionine-(S,R)-sulfoximine (BSO), as described in Jauslin et al., Hum. Mol. Genet. 11(24):3055 (2002), Jauslin et al., FASEB J. 17:1972-4 (2003), and International Patent Application WO 2004/003565. […] This specific BSO-mediated cell death can be prevented by administration of antioxidants or molecules involved in the antioxidant pathway, such as α-tocopherol, selenium, or small molecule glutathione peroxidase mimetics. However, antioxidants differ in their potency, i.e. the concentration at which they are able to rescue BSO-stressed FRDA fibroblasts.
MEM (a medium enriched in amino acids and vitamins, catalog no. 1-31F24-I) and Medium 199 (M199, catalog no. 1-21F22-I) with Earle's Balanced Salts, without phenol red, were purchased from Bioconcept. Fetal Calf Serum was obtained from PAA Laboratories. Basic fibroblast growth factor and epidermal growth factor were purchased from PeproTech. Penicillin-streptomycin-glutamine mix, L-buthionine (S,R)-sulfoximine, (+)-α-tocopherol acetate, decylubiquinone, and insulin from bovine pancreas were purchased from Sigma. Trolox (6-hydroxy-2,5,7,8-tetramethylchromane-2-carboxylic acid) was obtained from Fluka. Idebenone was obtained from Chemo Iberica. Calcein AM was purchased from Molecular Probes. Cell culture medium was made by combining 125 ml M199 EBS, 50 ml Fetal Calf Serum, 100 U/ml penicillin, 100 μg/ml streptomycin, 2 mM glutamine, 10 μg/ml insulin, 10 ng/ml EGF, and 10 ng/ml bFGF; MEM EBS was added to make the volume up to 500 ml. A 10 mM BSO solution was prepared by dissolving 444 mg BSO in 200 ml of medium with subsequent filter-sterilization. During the course of the experiments, this solution was stored at +4° C. The cells were obtained from the Coriell Cell Repositories (Camden, N.J.; repository number GM04078) and grown in 10 cm tissue culture plates. Every third day, they were split at a 1:3 ratio.
The test samples were supplied in 1.5 ml glass vials. The compounds were diluted with DMSO, ethanol or PBS to result in a 5 mM stock solution. Once dissolved, they were stored at −20° C. Reference antioxidants (Idebenone, decylubiquinone, α-tocopherol acetate and trolox) were dissolved in DMSO.
Test samples were screened according to the following protocol:
as §1, §2
as §3, with “The medium from all plates was discarded, and the remaining liquid was removed by gently tapping the plate inversed onto a paper towel.” left out

[4] = system: human dermal fibroblasts from Huntington's patients; assay: Rescue of BSO-stressed fibroblasts from Huntington's patients (screen as Example A); conditions: Fibroblast, BSO-stressed Huntington's fibroblasts (GM 04281), less than about 150 nM, read-out: EC50, protection against Huntington's
Procedure: as §1, §2, §3, §4
as §5, with “tested using the screen” for “screened”, “Huntington's” for “Leber's Hereditary Optic Neuropathy (LHON)”, “GM 04281).” for “GM03858).”, “Huntington's” for “LHON”

Measured: EC50

CC1=C(CCNC(N)=O)C(=O)C(c2ccc(Cl)cc2)=C(C)C1=O [1-(2-(5-(4-chlorophenyl)-2,4-dimethyl-3,6-dioxocyclohexa-1,4-dienyl)ethyl)urea]
< 0.15 µM: all assays above

CC1=C(C)C(=O)C(CCNC(=O)NCCN(C)C)=C(C)C1=O [1-(2-(dimethylamino)ethyl)-3-(2-(2,4,5-trimethyl-3,6-dioxocyclohexa-1,4-dienyl)ethyl)urea]
< 0.15 µM: all assays above

CC1=C(C)C(=O)C(CCNC(=O)NCCO)=C(C)C1=O [1-(2-hydroxyethyl)-3-(2-(2,4,5-trimethyl-3,6-dioxocyclohexa-1,4-dienyl)ethyl)urea]
< 0.15 µM: all assays above

CC1=C(C)C(=O)C(CCNC(=O)NCc2ccc(F)cc2)=C(C)C1=O [1-(4-Fluorobenzyl)-3-(2-(2,4,5-trimethyl-3,6-dioxocyclohexa-1,4-dienyl)ethyl)urea]
< 0.15 µM: all assays above

CC1=C(C)C(=O)C(CCNC(=O)NCc2ccc(Cl)cc2)=C(C)C1=O [1-(4-chlorobenzyl)-3-(2-(2,4,5-trimethyl-3,6-dioxocyclohexa-1,4-dienyl)ethyl)urea]
< 0.15 µM: all assays above

CC1=C(C)C(=O)C(CCNC(=O)NCc2cccnc2)=C(C)C1=O [1-(pyridin-3-ylmethyl)-3-(2-(2,4,5-trimethyl-3,6-dioxocyclohexa-1,4-dienyl)ethyl)urea]
< 0.15 µM: all assays above

CC1=C(C)C(=O)C(CCNC(=O)NCc2ccncc2)=C(C)C1=O [1-(pyridin-4-ylmethyl)-3-(2-(2,4,5-trimethyl-3,6-dioxocyclohexa-1,4-dienyl)ethyl)urea]
< 0.15 µM: all assays above

CC1=C(C)C(=O)C(CCNC(=O)Cc2ccc(Cl)cc2)=C(C)C1=O [2-(4-chlorophenyl)-N-(2-(2,4,5-trimethyl-3,6-dioxocyclohexa-1,4-dienyl)ethyl)acetamide]
< 0.15 µM: all assays above

CC1=C(C)C(=O)C(CCNC(=O)Cc2ccc(F)cc2)=C(C)C1=O [2-(4-fluorophenyl)-N-(2-(2,4,5-trimethyl-3,6-dioxocyclohexa-1,4-dienyl)ethyl)acetamide]
< 0.15 µM: all assays above

CC1=C(C)C(=O)C(CCC(C)C(=O)Nc2ccccn2)=C(C)C1=O (stereo not shown) [2-methyl-N-(pyridin-2-yl)-4-(2,4,5-trimethyl-3,6-dioxocyclohexa-1,4-dienyl)butanamide]
< 0.15 µM: all assays above

CC1=C(C)C(=O)C(CCNC(=O)c2ccc(C(F)(F)F)cc2)=C(C)C1=O [4-(Trifluoromethyl)-N-(2-(2,4,5-trimethyl-3,6-dioxocyclohexa-1,4-dienyl)ethyl)benzamide]
< 0.15 µM: [1] | [2] | [3]

CC1=C(C)C(=O)C(CCNC(=O)N2CCN(Cc3ccccc3)CC2)=C(C)C1=O [4-benzyl-N-(2-(2,4,5-trimethyl-3,6-dioxocyclohexa-1,4-dienyl)ethyl)piperazine-1-carboxamide]
< 0.15 µM: all assays above

CC1=C(C)C(=O)C(CCNC(=O)c2ccc(Cl)cc2)=C(C)C1=O [4-chloro-N-(2-(2,4,5-trimethyl-3,6-dioxocyclohexa-1,4-dienyl)ethyl)benzamide]
< 0.15 µM: [1] | [2] | [3]

CC1=C(C)C(=O)C(CCNC(=O)c2ccc(F)cc2)=C(C)C1=O [4-fluoro-N-(2-(2,4,5-trimethyl-3,6-dioxocyclohexa-1,4-dienyl)ethyl)benzamide]
< 0.15 µM: [1] | [2] | [3]

CC1=C(C)C(=O)C(CCNS(=O)(=O)c2ccc(F)cc2)=C(C)C1=O [4-fluoro-N-(2-(2,4,5-trimethyl-3,6-dioxocyclohexa-1,4-dienyl)ethyl)benzenesulfonamide]
< 0.15 µM: all assays above

COc1ccc(S(=O)(=O)NCCC2=C(C)C(=O)C(C)=C(C)C2=O)cc1 [4-methoxy-N-(2-(2,4,5-trimethyl-3,6-dioxocyclohexa-1,4-dienyl)ethyl)benzenesulfonamide]
< 0.15 µM: all assays above

CC1=C(C)C(=O)C(CCCC(=O)NC(C)(C)CO)=C(C)C1=O [N-(1-hydroxy-2-methylpropan-2-yl)-4-(2,4,5-trimethyl-3,6-dioxocyclohexa-1,4-dienyl)butanamide]
< 0.15 µM: [2] | [3]

CC1=C(C)C(=O)C(CCCC(=O)Nc2cccc(Cl)c2Cl)=C(C)C1=O [N-(2,3-dichlorophenyl)-4-(2,4,5-trimethyl-3,6-dioxocyclohexa-1,4-dienyl)butanamide]
< 0.15 µM: all assays above

CC1=C(CCNS(=O)(=O)c2ccc(F)cc2)C(=O)C(c2ccc(Cl)cc2)=C(C)C1=O [N-(2-(5-(4-chlorophenyl)-2,4-dimethyl-3,6-dioxocyclohexa-1,4-dienyl)ethyl)-4-fluorobenzenesulfonamide]
< 0.15 µM: [2] | [3] | [4]

CC1=C(C)C(=O)C(CCCC(=O)NCc2cccnc2)=C(C)C1=O [N-(pyridin-3-ylmethyl)-4-(2,4,5-trimethyl-3,6-dioxocyclohexa-1,4-dienyl)butanamide]
< 0.15 µM: [1] | [3] | [4]
